# Patent US12582722B2, “Bifunctional compounds for degrading BTK via ubiquitin proteosome pathway” (NURIX THERAPEUTICS, INC., priority 2019, dated 2026)
# Molecular target: T1, BTK (Homo sapiens, UniProt Q06187)
# T1 construct: endogenous in cells; host or cells: Ramos (ATCC CRL-1596)
# Experiment: Cellular BTK HTRF Assay (BTK degradation in Ramos cells)
# Assay type: cell-based
# Settings: four hours incubation, 37° C., BTK levels relative to DMSO-treated cells
# Protocol: Ramos (CRL-1596) cells were obtained from American Type Culture Collection and were grown in RPMI-1640 media (ATCC, 30-2001) supplemented with 10% heat-inactivated FBS (Corning Premium Fetal Bovine Serum from Fisher, MT35015CV).
# Compounds of the present invention were added to 50,000 Ramos cells in round-bottom 96 well plates with a final DMSO concentration of […] and were incubated at 37° C., 5% CO2 for four hours. BTK levels were determined using Cisbio Total-BTK HTRF ([…] Time-Resolved Fluorescence) kit (63ADK064PEG) according to manufacturer's protocol. Briefly, cells were incubated in 1× supplied lysis buffer for 30 minutes. In an opaque white low volume 96 well plate (Cisbio, 66PL96005), cell lysate was combined with two different specific BTK antibodies, one conjugated with Eu^3+-Cryptate FRET donor and one conjugated with d2 FRET acceptor. Assay controls include wells containing cell lysate with only the Eu^3+-Cryptate FRET donor antibody and wells containing both HTRF antibodies and lysis buffer without cells or control lysate provided by Cisbio. HTRF ratio was calculated as (acceptor signal at 665 nm/donor signal at 620 nm)×10^4. Background HTRF levels were determined from the control well containing the donor, but no acceptor, antibody. Background HTRF levels were subtracted from all samples. Readouts were reported as HTRF levels relative to HTRF levels of DMSO-treated cells. Four-parameter non-linear regressions were performed in GraphPad Prism 7.02 to obtain DC50 values. DC50 values are provided in Table 3, wherein A<7.5 nM, 7.5 nM≤B≤50 nM, and 50 nM<C<500 nM.
# T1 sequence (Q06187 whole entry): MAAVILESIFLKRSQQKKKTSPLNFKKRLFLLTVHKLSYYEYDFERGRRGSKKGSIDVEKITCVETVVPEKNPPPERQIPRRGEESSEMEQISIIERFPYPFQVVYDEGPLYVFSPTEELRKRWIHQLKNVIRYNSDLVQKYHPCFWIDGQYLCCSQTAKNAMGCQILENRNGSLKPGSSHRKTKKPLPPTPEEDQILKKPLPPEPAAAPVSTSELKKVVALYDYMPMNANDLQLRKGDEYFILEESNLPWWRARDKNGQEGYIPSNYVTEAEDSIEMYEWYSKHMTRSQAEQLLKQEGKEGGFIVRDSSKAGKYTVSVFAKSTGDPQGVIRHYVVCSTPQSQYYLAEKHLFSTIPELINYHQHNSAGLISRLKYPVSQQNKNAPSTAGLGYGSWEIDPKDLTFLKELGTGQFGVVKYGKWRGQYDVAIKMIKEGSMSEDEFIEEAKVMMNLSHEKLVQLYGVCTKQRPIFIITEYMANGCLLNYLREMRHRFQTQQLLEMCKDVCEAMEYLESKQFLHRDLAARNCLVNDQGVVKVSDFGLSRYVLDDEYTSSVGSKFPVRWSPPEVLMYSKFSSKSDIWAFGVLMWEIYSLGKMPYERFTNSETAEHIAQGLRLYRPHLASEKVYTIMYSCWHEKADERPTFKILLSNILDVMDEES
row,Structure (SMILES),DC50
1,"Cc1cc(Nc2nc(N3CCCC(NC(=O)CCOCCCc4cccc5c4CN(C4CCC(=O)NC4=O)C5=O)C3)cnc2C(N)=O)sn1 (stereo in doubt) [Compound 45, 5-[(3R)-3-(3-{3-[2-(2,6-dioxopiperidin-3-yl)-1-oxo-3H-isoindol-4-yl]propoxy}propanamido)piperidin-1-yl]-3-[(3-methyl-1,2-thiazol-5-yl)amino]pyrazine-2-carboxamide]",50 to 500 nM
2,"CS(=O)(=O)c1ccc(Nc2nc(N3CCC[C@@H](NC(=O)OCCCCCOc4ccc5c(c4)C(=O)N(C4CCC(=O)NC4=O)C5=O)C3)cnc2C(N)=O)cc1 (stereo partly drawn) [Compound 2, 5-((2-(2,6-dioxopiperidin-3-yl)-1,3-dioxoisoindolin-5-yl)oxy)pentyl ((R)-1-(5-carbamoyl-6-((4-(methylsulfonyl)phenyl)amino)pyrazin-2-yl)piperidin-3-yl)carbamate]",7.5 to 50 nM
3,"CS(=O)(=O)c1ccc(Nc2nc(N3CCC[C@@H](NC(=O)OCCCCCCCOc4ccc5c(c4)C(=O)N(C4CCC(=O)NC4=O)C5=O)C3)cnc2C(N)=O)cc1 (stereo partly drawn) [Compound 3, 7-((2-(2,6-dioxopiperidin-3-yl)-1,3-dioxoisoindolin-5-yl)oxy)heptyl ((R)-1-(5-carbamoyl-6-((4-(methylsulfonyl)phenyl)amino)pyrazin-2-yl)piperidin-3-yl)carbamate]",7.5 to 50 nM
4,"CS(=O)(=O)c1ccc(Nc2nc(N3CCC[C@@H](NC(=O)CCCCc4ccc5c(c4)C(=O)N(C4CCC(=O)NC4=O)C5)C3)cnc2C(N)=O)cc1 (stereo partly drawn) [Compound 4, 5-[(3R)-3-{5-[2-(2,6-dioxopiperidin-3-yl)-3-oxo-1H-isoindol-5-yl]pentanamido}piperidin-1-yl]-3-[(4-methanesulfonylphenyl)amino]pyrazine-2-carboxamide]",50 to 500 nM
5,"CS(=O)(=O)c1ccc(Nc2nc(N3CCC[C@@H](NC(=O)CCCCCCc4cccc5c4CN(C4CCC(=O)NC4=O)C5=O)C3)cnc2C(N)=O)cc1 (stereo partly drawn) [Compound 5, 5-[(3R)-3-{7-[2-(2,6-dioxopiperidin-3-yl)-1-oxo-3H-isoindol-4-yl]heptanamido}piperidin-1-yl]-3-[(4-methanesulfonylphenyl)amino]pyrazine-2-carboxamide]",50 to 500 nM
6,"CS(=O)(=O)c1ccc(Nc2nc(N3CCC[C@@H](NC(=O)OCCC4CCN(c5ccc6c(c5)C(=O)N(C5CCC(=O)NC5=O)C6=O)CC4)C3)cnc2C(N)=O)cc1 (stereo partly drawn) [Compound 6, 2-(1-(2-(2,6-dioxopiperidin-3-yl)-1,3-dioxoisoindolin-5-yl)piperidin-4-yl)ethyl ((R)-1-(5-carbamoyl-6-((4-(methylsulfonyl)phenyl)amino)pyrazin-2-yl)piperidin-3-yl)carbamate]",7.5 to 50 nM
7,"Cc1cc(Nc2nc(N3CCC[C@@H](NC(=O)OCCC4CCN(c5ccc6c(c5)C(=O)N(C5CCC(=O)NC5=O)C6=O)CC4)C3)cnc2C(N)=O)sn1 (stereo partly drawn) [Compound 7, 2-(1-(2-(2,6-dioxopiperidin-3-yl)-1,3-dioxoisoindolin-5-yl)piperidin-4-yl)ethyl ((R)-1-(5-carbamoyl-6-((3-methylisothiazol-5-yl)amino)pyrazin-2-yl)piperidin-3-yl)carbamate]",50 to 500 nM
8,"CS(=O)(=O)c1ccc(Nc2nc(N3CCC[C@@H](NC(=O)OCC4CCN(c5ccc6c(c5)C(=O)N(C5CCC(=O)NC5=O)C6=O)CC4)C3)cnc2C(N)=O)cc1 (stereo partly drawn) [Compound 8, (1-(2-(2,6-dioxopiperidin-3-yl)-1,3-dioxoisoindolin-5-yl)piperidin-4-yl)methyl ((R)-1-(5-carbamoyl-6-((4-(methylsulfonyl)phenyl)amino)pyrazin-2-yl)piperidin-3-yl)carbamate]",7.5 to 50 nM
9,"CS(=O)(=O)c1ccc(Nc2nc(N3CCC[C@@H](NC(=O)OC[C@@H]4CCN(c5ccc6c(c5)C(=O)N(C5CCC(=O)NC5=O)C6=O)C4)C3)cnc2C(N)=O)cc1 (stereo partly drawn) [Compound 9, ((3R)-1-(2-(2,6-dioxopiperidin-3-yl)-1,3-dioxoisoindolin-5-yl)pyrrolidin-3-yl)methyl ((R)-1-(5-carbamoyl-6-((4-(methylsulfonyl)phenyl)amino)pyrazin-2-yl)piperidin-3-yl)carbamate]",50 to 500 nM
10,"CS(=O)(=O)c1ccc(Nc2nc(N3CCC[C@@H](NC(=O)N4CCC5(CCN(c6ccc7c(c6)C(=O)N(C6CCC(=O)NC6=O)C7=O)CC5)C4)C3)cnc2C(N)=O)cc1 (stereo partly drawn) [Compound 10, N—((R)-1-(5-carbamoyl-6-((4-(methylsulfonyl)phenyl)amino)pyrazine-2-yl)piperidin-3-yl)-8-(2-(2,6-dioxopiperidin-3-yl)-1,3-dioxoisoindolin-5-yl)-2,8-diazaspiro[4.5]decane-2-carboxamide]",7.5 to 50 nM
11,"CS(=O)(=O)c1ccc(Nc2nc(N3CCC[C@@H](NC(=O)N4CCC5(CC4)CCN(c4ccc6c(c4)C(=O)N(C4CCC(=O)NC4=O)C6=O)CC5)C3)cnc2C(N)=O)cc1 (stereo partly drawn) [Compound 11, N-[(3R)-1-{5-carbamoyl-6-[(4-methanesulfonylphenyl)amino]pyrazin-2-yl}piperidin-3-yl]-9-[2-(2,6-dioxopiperidin-3-yl)-1,3-dioxoisoindol-5-yl]-3,9-diazaspiro[5.5]undecane-3-carboxamide]",< 7.5 nM
12,"Cc1cc(Nc2nc(N3CCC[C@@H](NC(=O)N4CCC5(CC4)CCN(c4ccc6c(c4)C(=O)N(C4CCC(=O)NC4=O)C6=O)CC5)C3)cnc2C(N)=O)sn1 (stereo partly drawn) [Compound 12, N-[(3R)-1-{5-carbamoyl-6-[(3-methyl-1,2-thiazol-5-yl)amino]pyrazin-2-yl}piperidin-3-yl]-9-[2-(2,6-dioxopiperidin-3-yl)-1,3-dioxoisoindol-5-yl]-3,9-diazaspiro[5.5]undecane-3-carboxamide]",7.5 to 50 nM
13,"CS(=O)(=O)c1ccc(Nc2nc(N3CCC[C@@H](NC(=O)N4CCC5(CCN(Cc6ccc7c(c6)C(=O)N(C6CCC(=O)NC6=O)C7=O)C5)CC4)C3)cnc2C(N)=O)cc1 (stereo partly drawn) [Compound 13, N-[(3R)-1-{5-carbamoyl-6-[(4-methanesulfonylphenyl)amino]pyrazin-2-yl}piperidin-3-yl]-2-{[2-(2,6-dioxopiperidin-3-yl)-1,3-dioxoisoindol-5-yl]methyl}-2,8-diazaspiro[4.5]decane-8-carboxamide]",< 7.5 nM
14,"CS(=O)(=O)c1ccc(Nc2nc(N3CCC[C@@H](NC(=O)C4CCN(CC5CCN(c6ccc7c(c6)C(=O)N(C6CCC(=O)NC6=O)C7=O)CC5)C4)C3)cnc2C(N)=O)cc1 (stereo partly drawn) [Compound 14, 5-[(3R)-3-[1-({1-[2-(2,6-dioxopiperidin-3-yl)-1,3-dioxoisoindol-5-yl]piperidin-4-yl}methyl)pyrrolidine-3-amido]piperidin-1-yl]-3-[(4-methanesulfonylphenyl)amino]pyrazine-2-carboxamide]",< 7.5 nM
15,"Cc1cc(Nc2nc(N3CCC[C@@H](NC(=O)C4CCN(CC5CCN(c6ccc7c(c6)C(=O)N(C6CCC(=O)NC6=O)C7=O)CC5)C4)C3)cnc2C(N)=O)sn1 (stereo partly drawn) [Compound 15, 5-[(3R)-3-[1-({1-[2-(2,6-dioxopiperidin-3-yl)-1,3-dioxoisoindol-5-yl]piperidin-4-yl}methyl)pyrrolidine-3-amido]piperidin-1-yl]-3-[(3-methyl-1,2-thiazol-5-yl)amino]pyrazine-2-carboxamide]",< 7.5 nM
16,"Cc1cc(Nc2nc(N3CCC[C@@H](NC(=O)C4CCN(CC5CN(c6ccc7c(c6)C(=O)N(C6CCC(=O)NC6=O)C7=O)C5)C4)C3)cnc2C(N)=O)sn1 (stereo partly drawn) [Compound 16, 5-[(3R)-3-[1-({1-[2-(2,6-dioxopiperidin-3-yl)-1,3-dioxoisoindol-5-yl]azetidin-3-yl}methyl)pyrrolidine-3-amido]piperidin-1-yl]-3-[(3-methyl-1,2-thiazol-5-yl)amino]pyrazine-2-carboxamide]",< 7.5 nM
17,"Cc1cc(Nc2nc(N3CCC[C@@H](NC(=O)C4CCN(CC5CN(c6ccc7c(c6)C(=O)N(C6CCC(=O)NC6=O)C7=O)C5)CC4)C3)cnc2C(N)=O)sn1 (stereo partly drawn) [Compound 17, 5-[(3R)-3-[1-({1-[2-(2,6-dioxopiperidin-3-yl)-1,3-dioxoisoindol-5-yl]azetidin-3-yl}methyl)piperidine-4-amido]piperidin-1-yl]-3-[(3-methyl-1,2-thiazol-5-yl)amino]pyrazine-2-carboxamide]",< 7.5 nM
18,"Cc1cc(Nc2nc(N3CCC[C@@H](NC(=O)N4CCN(CC5CN(c6ccc7c(c6)C(=O)N(C6CCC(=O)NC6=O)C7=O)C5)CC4)C3)cnc2C(N)=O)sn1 (stereo partly drawn) [Compound 18, 5-[(3R)-3-[4-({1-[2-(2,6-dioxopiperidin-3-yl)-1,3-dioxoisoindol-5-yl]azetidin-3-yl}methyl)piperazine-1-carbonylamino]piperidin-1-yl]-3-[(3-methyl-1,2-thiazol-5-yl)amino]pyrazine-2-carboxamide]",< 7.5 nM
19,"Cn1cc(Nc2nc(N3CCC[C@@H](NC(=O)C4CCN(CC5CN(c6ccc7c(c6)C(=O)N(C6CCC(=O)NC6=O)C7=O)C5)CC4)C3)cnc2C(N)=O)cn1 (stereo partly drawn) [Compound 19, 5-[(3R)-3-[1-({1-[2-(2,6-dioxopiperidin-3-yl)-1,3-dioxoisoindol-5-yl]azetidin-3-yl}methyl)piperidine-4-amido]piperidin-1-yl]-3-[(1-methylpyrazol-4-yl)amino]pyrazine-2-carboxamide]",< 7.5 nM
